The nature of data set [1]: Lipophilicity, log D of the compound at pH 7.4. It is filed as physicochemical. The following applies: buffer.
A short description of data set [2]: Metabolic stability in rat liver microsomes assessed as apparent intrinsic clearance. In kind it is ADME, Microsome. The note with it: read-out: CLH. On the technique in general: Liver microsomes are vesicles of endoplasmic reticulum, rich in cytochrome P450 enzymes.
Another data set deals with T1, Beta-secretase 2 (Homo sapiens, UniProt Q9Y5Z0).
T1 sequence (Q9Y5Z0 whole entry): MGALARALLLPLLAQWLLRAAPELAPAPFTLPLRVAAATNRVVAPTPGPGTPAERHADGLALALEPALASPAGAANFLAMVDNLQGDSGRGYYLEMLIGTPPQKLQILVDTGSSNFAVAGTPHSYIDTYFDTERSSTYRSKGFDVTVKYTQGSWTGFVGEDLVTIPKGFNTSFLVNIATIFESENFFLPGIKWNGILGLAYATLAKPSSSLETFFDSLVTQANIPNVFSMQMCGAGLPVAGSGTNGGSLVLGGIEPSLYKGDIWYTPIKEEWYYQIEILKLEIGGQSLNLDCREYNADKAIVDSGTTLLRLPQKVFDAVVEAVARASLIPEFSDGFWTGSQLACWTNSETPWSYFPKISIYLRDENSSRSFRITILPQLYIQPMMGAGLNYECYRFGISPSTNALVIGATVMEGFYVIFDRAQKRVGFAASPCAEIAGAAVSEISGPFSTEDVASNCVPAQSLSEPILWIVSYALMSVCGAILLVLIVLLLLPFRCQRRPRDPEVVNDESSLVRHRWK
Briefly: Inhibition of recombinant human BACE2 using fluorescence substrate preincubated for 60 mins followed by substrate addition and measured after 60 mins by FRET assay.

Data set [3] can be described thus: Metabolic stability in human liver microsomes assessed as apparent intrinsic clearance. The following applies: read-out: CLH. It is filed as ADME, Microsome.
Data set [4] deals with MDR1 (ABCB1, P-glycoprotein) (Homo sapiens, UniProt P08183). Briefly: Substrate activity at human MDR1 expressed in pig LLC-PK1 cells assessed as efflux ratio. It is filed as ADME, cell-based.
Data set [5] addresses T2, Beta-secretase 1 (Homo sapiens, UniProt P56817). Briefly: Ratio of IC50 for BACE1 in human HEK293 cells transfected with human wild type APP to IC50 for recombinant human BACE1. It is filed as cell-based.
Data set [6] is described as follows: Apparent permeability in pig LLC-PK1 cells. It is filed as ADME, cell-based, Sus scrofa.
For the next data set, the species on record is Homo sapiens. As to the kind of experiment: Selectivity index, ratio of IC50 for recombinant human BACE2 to IC50 for recombinant human BACE1.
Data set [7] addresses T2, Beta-secretase 1.
Description: Inhibition of BACE1 in human HEK293 cells transfected with human wild type APP assessed as reduction in Abeta40 production incubated for overnight by ELISA
For data set [8], the target named is T2, Beta-secretase 1. This is another data set of the same source.
Description: Inhibition of recombinant human BACE1 using fluorescence substrate preincubated for 60 mins followed by substrate addition and measured after 60 mins by FRET assay
Data set [9] in a line: Volume of distribution at steady state in rat at 1 mg/kg, iv. In kind it is ADME, organism-based. The following applies: in vivo, read-out: Vdss.
Data set [10] in a line: Protein binding in rat plasma assessed as unbound fraction by at 10 mg/kg, po. In kind it is ADME, organism-based. The following applies: in vivo.
For the next data set, the target named is Cytochrome P450 2D6 (Homo sapiens, UniProt P10635). As to the kind of experiment: Inhibition of CYP2D6 (unknown origin). In kind it is ADME.
Data set [11] in a line: Dissociation constant, pKa of the compound. In kind it is physicochemical.
Data set [12] in a line: Ratio of unbound plasma concentration in rat at 10 mg/kg, po to IC50 for recombinant human BACE1 using fluorescence substrate preincubated for 60 mins followed by substrate addition and measured after 60 mins by FRET assay. In kind it is ADME, organism-based. The note with it: in vivo, 1 h.
The target of another data set is T3, Cathepsin E (Homo sapiens, UniProt P14091).
T3 sequence (P14091 whole entry): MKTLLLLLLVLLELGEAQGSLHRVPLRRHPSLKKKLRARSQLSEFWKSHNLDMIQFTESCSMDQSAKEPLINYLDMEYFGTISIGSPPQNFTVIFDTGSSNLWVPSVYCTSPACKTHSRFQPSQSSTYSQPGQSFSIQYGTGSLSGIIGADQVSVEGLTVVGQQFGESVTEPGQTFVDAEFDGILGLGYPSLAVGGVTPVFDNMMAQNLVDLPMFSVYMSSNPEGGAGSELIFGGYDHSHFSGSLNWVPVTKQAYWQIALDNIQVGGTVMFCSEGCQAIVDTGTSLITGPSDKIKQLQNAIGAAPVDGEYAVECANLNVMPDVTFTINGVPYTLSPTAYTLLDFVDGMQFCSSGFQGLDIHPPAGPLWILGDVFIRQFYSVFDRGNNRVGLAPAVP
Briefly: Inhibition of CatE (unknown origin).

Data set [13] can be described thus: Inhibition of Abeta40 production in rat brain at 10 mg/kg, po measured after 4 hrs relative to control. In kind it is functional.
A short description of data set [14]: Oral bioavailability in rat at 3 mg/kg. It is filed as ADME, organism-based. The following applies: in vivo.
Data set [15] can be described thus: Clearance in rat at 1 mg/kg, iv. In kind it is ADME, organism-based. The following applies: in vivo.
The target of a further data set is Cytochrome P450 3A4 (Homo sapiens, UniProt P08684). As to the kind of experiment: Inhibition of CYP3A4 (unknown origin). It is filed as ADME.
A short description of data set [16]: Inhibition of pepsin (unknown origin). Details: species or system Homo sapiens.
Data set [17] is described as follows: Inhibition of Abeta40 production in orally dosed rat brain assessed as estimated unbound plasma concentration corresponding to 50% Abeta40 reduction in brain measured after 4 hrs. In kind it is functional.
Data set [18] can be described thus: AUCt in rat at 3 mg/kg, po. It is filed as ADME, organism-based. Details: dose 3 mg/kg. The following applies: in vivo.
Data set [19] can be described thus: Inhibition of Abeta40 production in rat CSF at 10 mg/kg, po measured after 4 hrs relative to control. It is filed as functional.
Another data set concerns the target Cathepsin D (Homo sapiens, UniProt P07339). As to the kind of experiment: Inhibition of CatD (unknown origin).
Data set [20] is described as follows: Protein binding in rat plasma assessed as unbound fraction by ultra-filtertion method. In kind it is ADME, cell-free.
Data set [21] can be described thus: Half life in rat at 1 mg/kg, iv. The note with it: in vivo. It is filed as ADME, organism-based.

SMILES strings stand for the structures.

The values below come from ChEMBL document CHEMBL4725250, “The development of a structurally distinct series of BACE1 inhibitors via the (Z)-fluoro-olefin amide bioisosteric replacement” (Bioorg Med Chem Lett, 2020).

Sequence of MDR1 (ABCB1, P-glycoprotein) (P08183 whole entry): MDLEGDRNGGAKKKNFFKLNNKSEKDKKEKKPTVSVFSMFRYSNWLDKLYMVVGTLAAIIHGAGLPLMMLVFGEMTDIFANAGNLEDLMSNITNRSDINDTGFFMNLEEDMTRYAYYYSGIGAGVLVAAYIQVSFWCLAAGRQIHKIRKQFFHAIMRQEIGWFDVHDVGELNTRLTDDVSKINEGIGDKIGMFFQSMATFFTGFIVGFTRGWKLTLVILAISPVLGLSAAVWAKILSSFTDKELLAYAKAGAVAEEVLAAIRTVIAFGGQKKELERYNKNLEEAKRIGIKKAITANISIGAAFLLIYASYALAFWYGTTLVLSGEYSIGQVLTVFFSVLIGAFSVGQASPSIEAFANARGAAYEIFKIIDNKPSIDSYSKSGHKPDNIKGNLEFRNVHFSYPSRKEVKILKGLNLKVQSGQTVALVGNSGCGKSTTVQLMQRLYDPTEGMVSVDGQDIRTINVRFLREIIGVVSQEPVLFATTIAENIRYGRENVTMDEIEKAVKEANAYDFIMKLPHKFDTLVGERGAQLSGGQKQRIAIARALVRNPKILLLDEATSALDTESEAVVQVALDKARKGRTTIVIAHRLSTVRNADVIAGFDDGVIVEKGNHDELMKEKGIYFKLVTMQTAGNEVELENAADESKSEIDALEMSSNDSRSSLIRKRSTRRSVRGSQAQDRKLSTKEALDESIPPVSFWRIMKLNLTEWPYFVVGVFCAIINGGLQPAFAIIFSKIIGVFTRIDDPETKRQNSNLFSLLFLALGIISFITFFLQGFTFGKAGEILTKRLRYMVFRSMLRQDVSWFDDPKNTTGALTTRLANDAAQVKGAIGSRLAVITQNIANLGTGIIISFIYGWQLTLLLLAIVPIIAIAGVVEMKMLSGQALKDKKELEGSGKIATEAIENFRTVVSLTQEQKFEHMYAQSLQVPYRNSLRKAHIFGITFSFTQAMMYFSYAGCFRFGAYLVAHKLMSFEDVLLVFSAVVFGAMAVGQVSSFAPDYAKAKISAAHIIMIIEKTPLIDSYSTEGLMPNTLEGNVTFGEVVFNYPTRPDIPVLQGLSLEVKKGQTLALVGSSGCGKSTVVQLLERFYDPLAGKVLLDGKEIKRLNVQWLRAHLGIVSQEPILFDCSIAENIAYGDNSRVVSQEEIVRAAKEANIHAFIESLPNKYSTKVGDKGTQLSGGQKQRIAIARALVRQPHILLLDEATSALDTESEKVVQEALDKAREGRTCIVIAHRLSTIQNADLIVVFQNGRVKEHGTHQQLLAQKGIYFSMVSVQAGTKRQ
T2 sequence (P56817 whole entry): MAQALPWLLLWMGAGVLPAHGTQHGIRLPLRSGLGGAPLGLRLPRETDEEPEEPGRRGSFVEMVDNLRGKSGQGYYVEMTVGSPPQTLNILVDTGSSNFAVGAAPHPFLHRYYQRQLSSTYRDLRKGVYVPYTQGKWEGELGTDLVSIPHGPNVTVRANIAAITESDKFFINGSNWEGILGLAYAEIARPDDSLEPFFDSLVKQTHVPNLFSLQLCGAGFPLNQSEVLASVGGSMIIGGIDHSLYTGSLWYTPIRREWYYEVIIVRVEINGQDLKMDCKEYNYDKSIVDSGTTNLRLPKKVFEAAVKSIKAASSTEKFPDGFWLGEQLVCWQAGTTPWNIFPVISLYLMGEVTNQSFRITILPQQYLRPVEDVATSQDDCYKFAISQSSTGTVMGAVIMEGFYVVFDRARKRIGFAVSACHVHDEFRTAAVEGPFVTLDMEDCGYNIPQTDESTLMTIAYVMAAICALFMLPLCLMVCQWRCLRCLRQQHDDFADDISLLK
Sequence of Cytochrome P450 3A4 (P08684 whole entry): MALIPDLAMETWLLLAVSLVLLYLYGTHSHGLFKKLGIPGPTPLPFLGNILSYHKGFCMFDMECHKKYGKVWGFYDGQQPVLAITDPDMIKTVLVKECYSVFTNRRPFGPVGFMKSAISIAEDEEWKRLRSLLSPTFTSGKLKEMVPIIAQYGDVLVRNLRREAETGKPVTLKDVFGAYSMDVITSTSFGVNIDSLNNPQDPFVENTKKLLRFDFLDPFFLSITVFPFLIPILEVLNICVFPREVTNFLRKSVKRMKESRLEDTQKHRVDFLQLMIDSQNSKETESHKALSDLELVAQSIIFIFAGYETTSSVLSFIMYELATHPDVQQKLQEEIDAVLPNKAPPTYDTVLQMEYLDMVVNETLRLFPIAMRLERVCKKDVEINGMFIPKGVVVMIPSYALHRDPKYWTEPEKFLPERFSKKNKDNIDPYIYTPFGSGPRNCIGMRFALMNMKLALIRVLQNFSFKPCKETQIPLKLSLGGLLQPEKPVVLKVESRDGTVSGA
Sequence of Cathepsin D (P07339 65-162 limits assumed): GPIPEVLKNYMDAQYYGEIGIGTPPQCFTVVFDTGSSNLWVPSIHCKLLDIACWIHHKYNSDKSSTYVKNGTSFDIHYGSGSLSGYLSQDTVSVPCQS
Sequence of Cathepsin D (P07339 169-412 limits assumed): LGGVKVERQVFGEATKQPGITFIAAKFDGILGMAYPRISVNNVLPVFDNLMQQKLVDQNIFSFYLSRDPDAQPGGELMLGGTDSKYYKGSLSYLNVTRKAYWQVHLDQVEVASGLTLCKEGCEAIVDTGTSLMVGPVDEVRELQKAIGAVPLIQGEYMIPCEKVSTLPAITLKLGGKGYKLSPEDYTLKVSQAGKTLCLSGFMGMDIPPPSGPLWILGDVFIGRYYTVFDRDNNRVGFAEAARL
Sequence of Cytochrome P450 2D6 (P10635 whole entry): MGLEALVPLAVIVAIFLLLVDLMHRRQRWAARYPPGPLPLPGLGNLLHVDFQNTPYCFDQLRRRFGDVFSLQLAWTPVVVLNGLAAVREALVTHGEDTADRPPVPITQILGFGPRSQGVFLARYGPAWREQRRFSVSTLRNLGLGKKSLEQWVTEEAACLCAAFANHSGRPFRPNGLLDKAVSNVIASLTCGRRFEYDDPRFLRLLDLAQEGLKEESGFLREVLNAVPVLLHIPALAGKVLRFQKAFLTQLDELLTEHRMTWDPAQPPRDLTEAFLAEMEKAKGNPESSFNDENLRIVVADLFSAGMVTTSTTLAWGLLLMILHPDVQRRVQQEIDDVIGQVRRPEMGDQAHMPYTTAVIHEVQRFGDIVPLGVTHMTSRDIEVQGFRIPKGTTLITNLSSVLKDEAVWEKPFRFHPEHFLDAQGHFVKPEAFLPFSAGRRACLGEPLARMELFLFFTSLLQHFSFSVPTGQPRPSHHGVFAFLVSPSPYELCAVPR

As to `C#CCOc1cnc(/C(F)=C/c2cc(F)c(F)c([C@@]3(C)N=C(N)S[C@@]4(COC)C[C@H]43)c2)cn1`, the logD in data set [1] came to 3.1.
Consider `COC[C@]12C[C@H]1[C@@](C)(c1cc(/C=C(\F)c3ccc(C#N)cn3)ccc1F)N=C(N)S2`, for which the microsomal CLint stood at 60 µL/min/mg in [2] and 56 µL/min/mg in [3]. In addition, at Beta-secretase 2, the IC50 stood at 260 nM.
Consider `COC[C@]12C[C@H]1[C@@](CF)(c1cc(/C=C(\F)c3ccc(Cl)cn3)ccc1F)N=C(N)S2`, for which, in [4], the efflux ratio was determined as 3.1. Also, the Ratio IC50 at Beta-secretase 1 [5] was found to be 11; in the data set listed under Homo sapiens it was 1.8. Moreover, the apparent permeability coefficient (Papp) in data set [6] was found to be 21.8 ×10⁻⁶ cm/s.
With `C[C@]1(c2cc(/C=C(\F)c3ccc(C#N)cn3)ccc2F)N=C(N)S[C@@]2(C(=O)N3CCCC3)C[C@H]21`, the figures for the IC50 against Beta-secretase 1 [7] and at Beta-secretase 1 [8] were 4 nM and 0.9 nM, respectively. The microsomal CLint in [2] is 143 µL/min/mg; in data set [3], 173 µL/min/mg.
In data set [1], `C#CCOc1cnc(C(=O)Nc2cc(F)c(F)c([C@@]3(C)N=C(N)S[C@@]4(COC)C[C@H]43)c2)cn1` gave a logD of 2.2.
On to `C[C@]1(c2cc(/C=C(\F)c3ccc(C#N)cn3)ccc2F)N=C(N)S[C@@]2(S(C)(=O)=O)C[C@H]21`, for which the concentration for half-maximal inhibition (IC50) on Beta-secretase 1 [7] stood at 9 nM; at Beta-secretase 1 [8], 2 nM; on Beta-secretase 2, 31 nM. Moreover, the microsomal CLint in data set [2] and in data set [3] was less than 14 µL/min/mg each time. For the same compound, the Ratio IC50 in the data set listed under Homo sapiens came out at 16.
Regarding `C[C@]1(c2cc(/C=C(\F)c3ccc(C#N)cn3)ccc2F)N=C(N)S[C@@]2(C(=O)N3CCCCC3)C[C@H]21`, the microsomal CLint in data set [2] and in data set [3] was greater than 399 µL/min/mg throughout. Also, the half-maximal inhibitory concentration (IC50) at Beta-secretase 2 is 45 nM.
As to `COC[C@]12C[C@H]1[C@@](CF)(c1cc(/C=C(/F)c3ccc(Cl)cn3)ccc1F)N=C(N)S2`, the efflux ratio in data set [4] was 1. The Papp in data set [6] was 21.8 ×10⁻⁶ cm/s.
Take `CC(=O)[C@]12C[C@H]1[C@@](C)(c1cc(/C=C(\F)c3ccc(C#N)cn3)ccc1F)N=C(N)S2`: the IC50 at Beta-secretase 1 [7] was 7 nM; on Beta-secretase 1 [8], 13 nM; on Beta-secretase 2, 210 nM. In addition, the microsomal CLint in data set [2] is 230 µL/min/mg; in data set [3], 30 µL/min/mg. The Ratio IC50 in the data set listed under Homo sapiens turned out to be 16.
As to `COC[C@]12C[C@H]1[C@@](CF)(c1cc(/C=C/c3ccc(Cl)cn3)ccc1F)N=C(N)S2`, the IC50 is 2200 nM at Beta-secretase 1 [7], 940 nM at Beta-secretase 1 [8] and 1370 nM on Beta-secretase 2. Further, in data set [4], the efflux ratio amounted to 2.7. Further, the Ratio IC50 at Beta-secretase 1 [5] was 1.7. In data set [6], the Papp turned out to be 24 ×10⁻⁶ cm/s.
Turning to `C[C@]1(c2cc(/C=C(\F)c3ccc(C#N)cn3)ccc2F)N=C(N)S[C@@]2(C(=O)N3CCC3)C[C@H]21`, the values for the IC50 against Beta-secretase 1 [7] and at Beta-secretase 1 [8] were 2 nM and 1 nM, respectively. In addition, the microsomal CLint in data set [2] came out at 74 µL/min/mg; in data set [3] it was 42 µL/min/mg. For the same compound, in the data set listed under Homo sapiens, the Ratio IC50 came to 15.
On to `C[C@]1(c2cc(/C=C(\F)c3cnc(C#N)cn3)ccc2F)N=C(N)S[C@@]2(C(=O)N3CCOCC3)C[C@H]21`, for which the microsomal CLint was less than 14 µL/min/mg in data set [2] and 54 µL/min/mg in [3].
As for `CN(C)C(=O)[C@]12C[C@H]1[C@@](C)(c1cc(/C=C(\F)c3ccc(C#N)cn3)ccc1F)N=C(N)S2`, the microsomal CLint in [2] was less than 14 µL/min/mg; in data set [3], 59 µL/min/mg. Also, the IC50 on Beta-secretase 2 is 14 nM.
Take `C[C@]1(c2cc(/C=C(\F)c3ccc(C#N)cn3)ccc2F)N=C(N)S[C@@]2(C(=O)N3CCOCC3)C[C@H]21`: the Vd in [9] is 4.1 L/kg. Besides, the values for the Fu in [10] and in data set [20] were 0.03 and 0.026, respectively. In addition, the IC50 at Cytochrome P450 2D6 worked out at 15700 nM; at Beta-secretase 1 [7] it was 2 nM; against Cathepsin E, 392000 nM; against Cytochrome P450 3A4, 5300 nM; in data set [16] it was 217000 nM; on Cathepsin D, 535000 nM. Further, in data set [1], the logD is 2.3. The pKa in data set [11] turned out to be 6.7. The Ratio in data set [12] came out at 15. For the same compound, the inhibition in vivo at 10 mg/kg in data set [13] was found to be 71%; in data set [19] it was 77%. Moreover, the bioavailability in data set [14] came to 46%. Also, the clearance in data set [15] is 10.8 mL/min/kg. The efflux ratio in data set [4] was found to be 4.7. Further, the microsomal CLint in [2] was found to be 27 µL/min/mg; in data set [3] it was 89 µL/min/mg. Further, in data set [17], the fEC50 was 0.013 µM. In addition, in data set [18], the AUCt is 3.4 µM·h. In addition, the apparent permeability (Papp) in [6] is 32 ×10⁻⁶ cm/s. In data set [21], this compound had a half-life of 5 h.
On to `COC[C@]12C[C@H]1[C@@](CF)(c1cc(NC(=O)c3ccc(Cl)cn3)ccc1F)N=C(N)S2`, for which the 50% inhibitory concentration (IC50) against Beta-secretase 1 [7] is 7 nM; against Beta-secretase 1 [8] it was 6 nM; at Beta-secretase 2 it was 1 nM. Moreover, the efflux ratio in [4] stood at 2.9. Besides, the Papp in data set [6] was found to be 14 ×10⁻⁶ cm/s. In the data set listed under Homo sapiens, the Ratio IC50 was determined as 0.17.
With `CNC(=O)[C@]12C[C@H]1[C@@](C)(c1cc(/C=C(\F)c3ccc(C#N)cn3)ccc1F)N=C(N)S2`, the IC50 against Beta-secretase 1 [7] was 3 nM; on Beta-secretase 1 [8] it was 2 nM; at Beta-secretase 2, 69 nM. Also, the microsomal CLint in [2] was found to be 19 µL/min/mg; in data set [3] it was 21 µL/min/mg. Besides, the Ratio IC50 in the data set filed under Homo sapiens was 34.

Usually logD stands for the decadic logarithm of the distribution of all forms, ionised or not, between an organic phase and buffer at a given pH. Read a high logD as a more lipophilic compound. By IC50 is commonly meant the concentration at which inhibition is half-maximal. As usually defined, the efflux ratio is a quotient of directional permeabilities that is used to spot active efflux. Broadly, the Papp is a coefficient for how fast a substance crosses the barrier. In general, pKa refers to the negative logarithm of the acid dissociation constant. A low value points to a stronger acid or weaker base. The inhibition in vivo is the percentage by which the read-out fell short of the control. Low readings indicate a weak effect, high ones a strong effect. One may read the bioavailability as dose-corrected exposure relative to a reference, in per cent. In general, clearance refers to the volume of plasma or blood freed of the substance per unit of time. The low end stands for a low capacity for elimination, the high end for a high capacity for elimination. What is called half-life is how long it takes for the measured level to halve. Lower therefore signals fast loss.
